Results: patent US20230355498A1, “HAIR GROWTH AGENT” (ADJUVANT HOLDINGS CO., LTD., priority 2020, published 2023)

Assays:
[1] = tested on: FGF-7 gene; assay: FGF-7 gene expression in human dermal papilla cells (real-time PCR, GAPDH internal standard); type: cell-based; settings: 24 hours, FIG. 4
Protocol: Testing and evaluation were carried out with maintenance and culture of human dermal papilla cells being performed in the same manner as at Exemplary Test 3, above.
As drugs for testing, drug solutions of the following respective concentrations (final concentrations) were prepared and used. • Comparative Example 1: 100 μM adenosine • Working Example 1: 1 μM palmitoyl dipeptide-5 diaminohydroxybutyrate • Working Example 2: 10 μM palmitoyl dipeptide-5 diaminohydroxybutyrate • Working Example 3: 300 μM palmitoyl dipeptide-5 diaminohydroxybutyrate
A 24-well plate was seeded with human dermal papilla cells so as to obtain 6×10^3 thereof per well. […]
Following culture, total RNA was extracted from the respective wells and was recovered, and this was reverse-transcribed into cDNA. […] The GAPDH gene was used as an internal standard, the amount of FGF-7 gene expression being calculated relative to the negative control group.
A FastGene RNA Basic Kit (Catalog No. FG-80250; Nippon Genetics Co., Ltd. (Japan)) was used to recover total RNA from cells. […] Concentration of the recovered RNA was measured using a NanoDrop Lite (Catalog No. ND-LITE; Thermo Fisher Scientific K.K.), and this was stored at −80° C. until the following cDNA creation procedure.
A FastGene scriptase II cDNA synthesis 5× Ready Mix (Catalog No. NE-LS641; Nippon Genetics Co., Ltd. (Japan)) was used to synthesize cDNA. […]

[2] = tested on: skin samples derived from mouse dorsal body hair skin (C57BL/6N) grafted onto Balb/c nu/nu mice; assay: Hair growth activity: hair shaft length follow-up at transplanted skin samples after topical application; type: in vivo
Protocol: C57BL/6N mice (male) and Balb/c nu/nu mice (female) were purchased from Japan SLC, Inc.(Japan) and bred, and were thereafter made available for the following testing. Note that the testing and breeding of animals complied with pertinent laws, regulations, ordinances, and guidelines, and was performed with the approval of the Experimental Ethics Review Board of the Institute of Physical and Chemical Research.
The following reagents were respectively prepared. • Placebo: 60% aqueous ethanol solution • Working Example 1: 0.05% solution of palmitoyl • dipeptide-5 diaminohydroxybutyrate (3) Preparation of Skin Samples Derived from Mouse Dorsal Body Hair Skin
To collect dorsal body hair skin in the form of anagen stage VI skin 12 to 14 days following depilation, C57BL/6N mice of age 7 to 8 weeks were depilated at locations where dorsal body hair skin was intended to be collected, and were bred for 12 to 14 days. The depilated C57BL/6N mice were thereafter euthanized by cervical dislocation, following which a suitable amount of dorsal body hair skin was collected from the locations at which dorsal body hair skin was intended to be collected.
The collected skin was immersed in DMEM culture medium (hereinafter “DMEM 10”) which contained 10 mM HEPES, 10% fetal bovine serum, and 1% penicillin/streptomycin solution. The collected dorsal body hair skin was grasped with bent-nose curved tweezers and was treated by immersion for 10 seconds in a sterilizing solution. Sterilization treatment was performed by carrying out treatment with 7% povidone iodine solution two times, treatment with PBS (-) three times, and treatment with DMEM 10 two times, in this order, with fresh solutions respectively being used each time. Following sterilization treatment, these were immersed in clean DMEM 10.
Following sterilization treatment, the dorsal body hair skin was cut into pieces and formed into blocks. The transparent connective tissue which adhered to the cutaneous muscle layer of the skin was excised therefrom using curved scissors, and hair groups were cut into rectangular strips in parallel fashion with respect to the direction of the wave of the hair. At this time, these were cut into blocks such that there were 6 rows of hair follicles along the long axis, adjustment having been carried out so that there were 5 rows of hair follicles along the short axis.
The skin samples derived from dorsal body hair skin that were prepared in accordance with the foregoing were grafted onto Balb/c nu/nu mice of age 4 to 6 weeks.
More specifically, mice were anesthetized in the usual way using isoflurane gas. The dorsal area of the mice was then disinfected using 7% povidone iodine solution, following which the mice were made to assume a naturally recumbent posture. In addition, a Mani ophthalmic knife (Mani, Inc.; Japan) was used to pierce the skin at the dorsal area of the mice, the grafts which were formed extending from the epidermal layer of the skin to the subdermal layer. The skin samples derived from dorsal body hair skin were inserted into the grafts formed thereat in such fashion as to cause the hair groups to be directed toward the body surface side of the grafts. Skin sample transplanted depth was adjusted so as to cause the top portion of the hair group to be in a state such that it was exposed at the top portion of the graft. To protect the grafts, Nurseban (registered trademark) (Sunplanet Co., Ltd.; Japan) and surgical tape (3M Japan Limited; Japan) were then used as protective tape to cover the grafts at which the skin samples derived from dorsal body hair skin had been transplanted. The protective tape was removed 5 to 7 days following transplantation, and survival of the transplanted skin samples derived from dorsal body hair skin was determined by visual inspection or digital microscopy (Keyence Corporation: Japan), after which follow-up observation was carried out.
For the first hair cycle, 60% aqueous ethanol solution was applied thereto as placebo. […]

[3] = tested on: human dermal papilla cells; assay: Dermal papilla cell growth promotion (Cell Count Reagent SF, absorbance 450 nm); type: cell-based; settings: FIG. 3
Protocol: Human dermal papilla cells (Catalog No. CA602t05a; derived from person; Toyobo Co., Ltd. (Japan)) were purchased, testing and evaluation being carried out with maintenance and culture of cells being performed as described in the protocol.
As drugs for testing, drug solutions consisting of culture medium for human dermal papilla cells containing palmitoyl dipeptide-5 diaminohydroxybutyrate in the following respective concentrations (final concentrations) were prepared, and these were used. • Working Example 1: 11.54709375 μM • Working Example 2: 23.0941875 μM • Working Example 3: 46.188375 μM • Working Example 4: 92.37675 μM • Working Example 5: 184.7535 μM • Working Example 6: 369.507 μM
A 96-well plate was seeded with human dermal papilla cells so as to obtain 1×10^3 thereof per well. […] After this had been added thereto, absorbance (measurement wavelength 450 nm; reference wavelength 620 nm) of the culture supernatant was measured. Based on these values, the cell growth rates at the respective wells were calculated, at which time the cell growth rate of the control group at which nothing had been added was taken to be 100%.

[4] = tested on: hair shafts from skin samples transplanted in Balb/c nu/nu mice; assay: Hair-diameter-increasing activity: hair shaft diameter of zigzag hairs that completed the second cycle; type: in vivo, mouse
Protocol: Measurement of increase in hair diameter was carried out using hair shafts that had completed the second cycle at the foregoing Exemplary Test 1. Of the hair shafts that were collected, three zigzag hairs were used for measurement of increase in hair diameter. Three locations were selected in regions where diameter was large in the central portions thereof using a square 100 μm on a side. For each of the selected regions, five different locations were further selected, and hair shaft diameter of the zigzag hairs thereat was measured to evaluate the degree to which increase in hair diameter had occurred.

[5] = 0.05% solution, second hair cycle vs placebo applied in first hair cycle
[6] = solution containing 0.05%, applied at transplanted skin samples in mice

## palmitoyl dipeptide-5 diaminohydroxybutyrate
[1]; 1 μM and 10 μM (Working Examples 1 and 2)
  Amount of expression of the FGF-7 gene as compared with control group at which nothing had been added: increase in the amount of expression of the FGF-7 gene
[1]; increasing the amount added
  Amount of expression of the FGF-7 gene compared with 100 μM adenosine (Comparative Example 1): greater than that which was produced as a result of action of adenosine
[2]; 0.05% solution applied topically, second hair cycle, placebo (first hair cycle) 0.38 ± 0.06
  Hair shaft elongation rate (mm/day): 0.39 ± 0.06 mm/day
[2]; 0.05% solution applied topically, second hair cycle, placebo (first hair cycle) 4.9 ± 0.4, * p<0.05
  Maximum hair shaft length (mm): 5.2 ± 0.2 * mm
[2]; [5]
  Hair shaft elongation rate: Percent change relative to reference data: 100.63%
  Maximum hair shaft length: Percent change relative to reference data: 105.19%
[2]; solution containing 0.05%
  Hair growth activity (in words): exhibit hair growth activity
[2]; [6]
  Hair shaft elongation rate as compared with reference data (in words): improvement in hair shaft elongation rate
  Maximum hair shaft length as compared with reference data (in words): significant improvement
[3]; 11.54709375 to 369.507 μM (Working Examples 1 to 6), 24, 48 or 72 hours
  Cell growth rate as compared with control group at which nothing had been added (control = 100%): increase in cell growth rate
[3]; 11.54709375 to 369.507 μM, peak at concentration of Working Example 5 (184.7535 μM)
  Concentration dependence of cell growth: induced cell growth in concentration-dependent fashion
[4]; hair shafts which had completed the second cycle
  Hair diameter as compared with 60% aqueous ethanol control (in words): clear increase in hair diameter
[4]; second hair cycle vs placebo applied in first hair cycle
  Hair shaft diameter: Percent increase (%): 124%
[4]; zigzag hairs, second hair cycle, 0.05% solution, placebo (first hair cycle) 18.5 ± 3.1, ** p<0.01
  Hair shaft diameter (μm): 22.9 ± 2.5 ** μm
